Data from PubChem BioAssay AID1963849 (Molecular Pharmacology Branch, DTP, NCI, 2024).

Tested on: 299254-011-R-J1-PDC complex spheroid viability
Assay: Anticancer human tumor 299254-011-R-J1-PDC patient-derived melanoma cell line growth inhibition [POLQ]
Conditions: for IC50: curve of first compound; for viability, T/C: stronger effect = lower value
Procedure: Multicellular complex tumor spheroid response to Polymerase (POL) inhibitors (novobiocin, ART-558, RP6685) in combination with a variety of drugs and investigational agents in selected tumor cell lines
The POL inhibitors (novobiocin, ART-558, and RP6685) were evaluated both individually and in combination with standard of care and investigational anticancer small molecules within a complex spheroid model of solid tumors. . Complex spheroids include a stromal component modeled by human endothelial cells (HUVEC) and fibroblasts modeled by human mesenchymal stem cells (MSCs). The concentration ranges selected for each drug and investigational agent were based upon clinically achievable concentrations if the clinical Cmax of the agent was known.
Compounds. The drugs and investigational agents: novobiocin (NSC847541), ART-558 (NSC835418), RP-6685 (NSC848927), peposertib (NSC802822), ceralasertib (NSC780249), elimusertib (NSC800525), camonsertib (NSC841442), AZD-1390 (NSC803789), olaparib (NSC753686), talazoparib (NSC767125), rucaparib (NSC756644), sotorasib (NSC818433), MRTX-1133 (NSC836407), SN-38 (NSC673596), topotecan (NSC609699), epotoside (NSC141540), doxorubicin (NSC123127), gemcitabine (NSC613327), 5-fluorouracil (NSC19893), paclitaxel (NSC125973), vemurafenib (NSC761431), MSA-2 (NSC828583), SN-011 (NSC837082), adavosertib (NSC754352), prexasertib (NSC758257), carboplatin (NSC241240) and oxaliplatin (NSC266046), were obtained from the National Cancer Institute (NCI) Developmental Therapeutics Program Chemical Repository (21). The FDA-approved anticancer drug set is available from the Developmental Therapeutics Program at https://dtp.cancer.gov/organization/dscb/obtaining/. […] The stock solutions were prepared in dimethyl sulfoxide (DMSO, Sigma-Aldrich, St. Louis, MO, cat. D2650), except for the platinum compounds which were prepared in saline (Quality Biological, Gaithersburg, MD, cat. 114-055-101), at 800-fold the tested concentration and stored at -70 degrees C prior to their use. All drugs and investigational agents were tested over a range starting from a high concentration at or near the clinical Cmax and decreasing in half-log increments. If the clinical Cmax for an agent had not been determined, the highest concentration tested was 10 microM, except for SN-38, which was tested at a high concentration of 1 microM.
Cell Culture. All cells were maintained in an incubator at 37 degrees C and 5% CO2 with 95% humidity. The PDC lines were cultured according to standard operating procedures established by the NCI PDMR (https://pdmr.cancer.gov). Table 3 of the manuscript, lists the cell lines along with the number of the three cell types plated to form the mct-spheroids and media for tumor cell growth. After thawing, all PDC lines, except 997537-175-T-J1-PDC and 415267-285-R-J2-PDC, were cultured in Matrigel-coated flasks prepared with a working solution of 1X Ham's F-12 nutrient mix, without supplementation (Thermo Fisher Scientific, cat. 11765054), 100 U/mL penicillin-streptomycin (Thermo Fisher Scientific, cat. 15140122), and 2.5% Matrigel (Corning Inc., Corning, NY, cat. 354248) for the first three passages. The two PDC lines 997537-175-T-J1-PDC and 415267-285-R-J2-PDC were cultured on uncoated flasks. The 857933-349-R-J2-PDC line was cultured in 6C/Colon 1B media containing advanced DMEM/F-12 (Thermo Fisher Scientific, cat. 12634028), 10 mM HEPES (Thermo Fisher Scientific, cat. 15630080), 1X GlutaMAX supplement (Thermo Fisher Scientific, cat. 35050061), 0.1 mg/mL primocin (InvivoGen, San Diego, CA, cat. ant-pm-2), 10% defined fetal bovine serum, heat inactivated (HyClone Laboratories Inc., Logan, UT, cat. SH30070.03HI), 50% L-WRN conditioned media (ATCC, cat. CRL-3276), 1.25 mM N-Acetyl-L-cysteine (Sigma-Aldrich, cat. A9165), 10 mM nicotinamide (Sigma-Aldrich, cat. N0636), 1X B-27 supplement (Thermo Fisher Scientific, cat. 17504044), 1X N-2 supplement (Thermo Fisher Scientific, cat. […]

[1] = second compound 0.0316 µM, first compound 0.0316 µM
[2] = second compound 0.0316 µM, first compound 0.1 µM
[3] = second compound 0.0316 µM, first compound 0.316 µM
[4] = second compound 0.0316 µM, first compound 1 µM
[5] = second compound 0.0316 µM, first compound 3.16 µM
[6] = second compound 0.0316 µM, first compound 10 µM
[7] = second compound 0.1 µM, first compound 0.0316 µM
[8] = second compound 0.1 µM, first compound 0.1 µM
[9] = second compound 0.1 µM, first compound 0.316 µM
[10] = second compound 0.1 µM, first compound 1 µM
[11] = second compound 0.1 µM, first compound 3.16 µM
[12] = second compound 0.1 µM, first compound 10 µM
[13] = second compound 0.316 µM, first compound 0.0316 µM
[14] = second compound 0.316 µM, first compound 0.1 µM
[15] = second compound 0.316 µM, first compound 0.316 µM
[16] = second compound 0.316 µM, first compound 1 µM
[17] = second compound 0.316 µM, first compound 3.16 µM
[18] = second compound 0.316 µM, first compound 10 µM
[19] = second compound 1 µM, first compound 0.0316 µM
[20] = second compound 1 µM, first compound 0.1 µM
[21] = second compound 1 µM, first compound 0.316 µM
[22] = second compound 1 µM, first compound 1 µM
[23] = second compound 1 µM, first compound 3.16 µM
[24] = second compound 1 µM, first compound 10 µM
[25] = second compound 3.16 µM, first compound 0.0316 µM
[26] = second compound 3.16 µM, first compound 0.1 µM
[27] = second compound 3.16 µM, first compound 0.316 µM
[28] = second compound 3.16 µM, first compound 1 µM
[29] = second compound 3.16 µM, first compound 3.16 µM
[30] = second compound 3.16 µM, first compound 10 µM
[31] = second compound 10 µM, first compound 0.0316 µM
[32] = second compound 10 µM, first compound 0.1 µM
[33] = second compound 10 µM, first compound 0.316 µM
[34] = second compound 10 µM, first compound 1 µM
[35] = second compound 10 µM, first compound 3.16 µM
[36] = second compound 10 µM, first compound 10 µM
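Further: spheroids exposed to drugs for one week before measurement.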
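Wherever viability, T/C is given: percent viability relative to DMSO vehicle control taken as 100%.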

Structure (SMILES): Nc1ccn(C2OC(CO)C(O)C2(F)F)c(=O)n1 (centres undefined) + COC1C(OC(N)=O)C(O)C(Oc2ccc3c(O)c(NC(=O)c4ccc(O)c(CC=C(C)C)c4)c(=O)oc3c2C)OC1(C)C
- IC50 (second compound 0.0316 µM): 81.8 nM
- IC50 (second compound 0.1 µM): 76.7 nM
- IC50 (second compound 0.316 µM): 63.1 nM
- IC50 (second compound 1 µM): 79.6 nM
- IC50 (second compound 3.16 µM): < 31.6 nM
- IC50 (second compound 10 µM): 66.2 nM
- viability, T/C [1]: 62.8%
- viability, T/C [2]: 44.3%
- viability, T/C [3]: 41.2%
- viability, T/C [4]: 35.1%
- viability, T/C [5]: 46.8%
- viability, T/C [6]: 44.4%
- viability, T/C [7]: 60.1%
- viability, T/C [8]: 40.6%
- viability, T/C [9]: 52.4%
- viability, T/C [10]: 37.7%
- viability, T/C [11]: 35.6%
- viability, T/C [12]: 39.2%
- viability, T/C [13]: 64.7%
- viability, T/C [14]: 40.6%
- viability, T/C [15]: 36.6%
- viability, T/C [16]: 30.9%
- viability, T/C [17]: 44.7%
- viability, T/C [18]: 41.2%
- viability, T/C [19]: 71.6%
- viability, T/C [20]: 44.4%
- viability, T/C [21]: 46.6%
- viability, T/C [22]: 33.8%
- viability, T/C [23]: 48.9%
- viability, T/C [24]: 45.5%
- viability, T/C [25]: 57%
- viability, T/C [26]: 38.8%
- viability, T/C [27]: 35%
- viability, T/C [28]: 39.6%
- viability, T/C [29]: 31.3%
- viability, T/C [30]: 42.4%
- viability, T/C [31]: 61%
- viability, T/C [32]: 44.1%
- viability, T/C [33]: 39.1%
- viability, T/C [34]: 39.3%
- viability, T/C [35]: 48.9%
- viability, T/C [36]: 31.4%

Structure (SMILES): O=C(c1cc(Cc2n[nH]c(=O)c3ccccc23)ccc1F)N1CCN(C(=O)C2CC2)CC1 + COC1C(OC(N)=O)C(O)C(Oc2ccc3c(O)c(NC(=O)c4ccc(O)c(CC=C(C)C)c4)c(=O)oc3c2C)OC1(C)C
- IC50 (second compound 0.0316 µM): > 10000 nM
- IC50 (second compound 0.1 µM): > 10000 nM
- IC50 (second compound 0.316 µM): > 10000 nM
- IC50 (second compound 1 µM): > 10000 nM
- IC50 (second compound 3.16 µM): > 10000 nM
- IC50 (second compound 10 µM): > 10000 nM
- viability, T/C [1]: 129%
- viability, T/C [2]: 114%
- viability, T/C [3]: 114%
- viability, T/C [4]: 122%
- viability, T/C [5]: 116%
- viability, T/C [6]: 101%
- viability, T/C [7]: 107%
- viability, T/C [8]: 113%
- viability, T/C [9]: 117%
- viability, T/C [10]: 129%
- viability, T/C [11]: 131%
- viability, T/C [12]: 93.6%
- viability, T/C [13]: 116%
- viability, T/C [14]: 110%
- viability, T/C [15]: 119%
- viability, T/C [16]: 135%
- viability, T/C [17]: 106%
- viability, T/C [18]: 99.5%
- viability, T/C [19]: 128%
- viability, T/C [20]: 122%
- viability, T/C [21]: 121%
- viability, T/C [22]: 127%
- viability, T/C [23]: 134%
- viability, T/C [24]: 98.2%
- viability, T/C [25]: 144%
- viability, T/C [26]: 114%
- viability, T/C [27]: 109%
- viability, T/C [28]: 121%
- viability, T/C [29]: 117%
- viability, T/C [30]: 98.9%
- viability, T/C [31]: 128%
- viability, T/C [32]: 119%
- viability, T/C [33]: 120%
- viability, T/C [34]: 128%
- viability, T/C [35]: 108%
- viability, T/C [36]: 95.2%
